Experimental data from patent publication US8221658B2, “Mixed salts of diorganylphosphinic acids and carboxylic acids” (Clariant Finance (BVI) Limited, priority 2007, dated 2012).

Key:
[1] = Decomposition in differential thermal analysis (2% weight loss, atmosphere: air); type: physicochemical
Method: A mixture of 5 g of terephthalic acid and 3.9 g of aluminum trisdiethylphosphinate is reacted for 0.5 h at 350° C., as in example 1.

[2] = under nitrogen; cited from earlier work

| Compound | Decomposition in differential thermal analysis (2% weight loss) [1] [°C] | Evaporation temperature [2] [°C] |
| --- | --- | --- |
| CCP(=O)([O-])CC.O=C([O-])c1ccc(C(=O)[O-])cc1.[Al+3] [Example 4, aluminum mono(diethylphosphinate)terephthalate] | 425 | – |
| CC(C)CP(=O)([O-])CC(C)C.CC(C)CP(=O)([O-])CC(C)C.CC(C)CP(=O)([O-])CC(C)C.[Al+3] [aluminum salt of diisobutylphosphinic acid] | – | 300 to 400 |
| aluminum terephthalate | 298 | – |
| aluminum trisdiethylphosphinate | 355 | 400 to 500 |
